For four compounds, IC50 results are on record in US20100080786A1, “Phenyl or Pyridinyl Substituted Indazoles Derivatives” (priority 2008, published 2010).

The test has as its target T1, Human Glucocorticoid Receptor (GR) (Homo sapiens, UniProt P04150).
T1 construct: The full length GR was diluted to a final concentration of 3.3% (0.495 mg/ml) in assay buffer
T1 sequence (P04150 1-777): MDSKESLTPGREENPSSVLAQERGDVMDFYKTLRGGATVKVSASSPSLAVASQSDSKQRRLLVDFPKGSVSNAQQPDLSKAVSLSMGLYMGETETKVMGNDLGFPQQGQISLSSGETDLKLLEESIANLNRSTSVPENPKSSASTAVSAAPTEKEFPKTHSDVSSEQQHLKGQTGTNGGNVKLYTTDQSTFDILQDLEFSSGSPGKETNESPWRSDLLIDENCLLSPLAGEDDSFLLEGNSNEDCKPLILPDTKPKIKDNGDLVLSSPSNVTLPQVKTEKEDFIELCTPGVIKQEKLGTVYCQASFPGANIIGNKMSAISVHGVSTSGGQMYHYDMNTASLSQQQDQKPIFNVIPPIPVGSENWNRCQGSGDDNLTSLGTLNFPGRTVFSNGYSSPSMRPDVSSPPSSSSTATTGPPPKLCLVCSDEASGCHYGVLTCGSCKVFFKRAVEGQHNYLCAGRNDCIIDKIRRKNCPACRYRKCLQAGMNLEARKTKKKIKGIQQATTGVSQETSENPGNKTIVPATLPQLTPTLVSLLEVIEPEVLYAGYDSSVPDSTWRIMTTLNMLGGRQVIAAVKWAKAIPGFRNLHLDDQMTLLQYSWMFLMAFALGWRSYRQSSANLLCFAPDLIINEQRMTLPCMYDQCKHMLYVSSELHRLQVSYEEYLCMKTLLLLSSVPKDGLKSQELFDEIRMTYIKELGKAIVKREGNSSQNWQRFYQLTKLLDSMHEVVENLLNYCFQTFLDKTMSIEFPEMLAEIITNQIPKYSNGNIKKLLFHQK
The test is described as follows: Human Glucocorticoid Receptor (GR) radioligand binding assay (3H-dexamethasone competition). The conditions noted are these: full length GR; 7 nM 3H-dexamethasone; 2 h at room temperature. On the procedure:
Human Glucocorticoid Receptor (GR) Assay
The radioligand GR binding assay is based on a competition assay using ^3H-labeled Dexamethasone. Dexamethasone is known to bind in the ligand binding domain of GR and compete for binding with endogenous ligands like e.g. cortisol (Necela, 2003). In the GR radioligand binding assay, test compounds were serially diluted in semi-log steps (10 concentrations) with a final concentration of 10 μM. Test compounds (1 μL) and controls (1 μL) in 100% DMSO were added to 96 Greiner V-bottom polypropylene plates. 0% control was 6.7% DMSO (final concentration in assay) and 100% control was 6.7 μM Dexamethasone.
The full length GR was diluted to a final concentration of 3.3% (0.495 mg/ml) in assay buffer (20 mM Tris-HCl, 1 mM EDTA, 10% (w/v) Glycerol, 20 mM Sodium molybdate, pH 7.4). 45 μL of GR was added to each well and the plates were incubated for 15 min at room temperature.
^3H-dexamethasone solution was diluted to a concentration of 70 nM in assay buffer (7 nM final assay concentration) and 5 μL was added to each well. The samples were mixed for 5 min using a plate shaker at 700 rpm, before incubation for 2 h at room temperature.
50 μL ice-cold charcoal solution (pH 7.4:2% Charcoal, 0.2% Dextran T70 in 20 mM Tris-HCl, 1 mM EDTA and 20 mM Sodium molybdate) was added to each well and the samples were mixed on plate shaker for 5 minutes.
The plate was then centrifuged for 1.5 min at 1500 rpm, the samples (80 μL) were is transferred from each well to a filter plate (Millipore, 0.45 μm, MHVBN45) on a vacuum manifold and then collected into new plates (Greiner, 96 well white/transparent, 655095). The filter plate was washed once with 20 μl of water and then 100 μL of scintillation liquid was added to each well and mixed by incubation on plate shaker for 5 min. Radioactivity was measured in a 1450 Microbeta Trilux Reader (Wallac) counting cpm for 2 minutes per well. The data obtained from each replicate experiment were analysed using the software ActivityBase, version 5.4.3 (ID Business Solutions Ltd) and IC50 values were calculated. Ref: Necela, B M, Cidlowski, J A, Trends Pharmacol Sci, 24: 58, 2003

Take `COc1ccc([C@@H](Oc2ccc3c(cnn3-c3cccc(C(=O)NC4CCOC4)c3)c2)[C@H](C)NC(=O)C(C)(F)F)cn1` (stereo partly drawn) [Example 25, 3-(5-{[(1R,2S)-2-[(2,2-difluoropropanoyl)amino]-1-(6-methoxypyridin-3-yl)propyl]oxy}-1H-indazol-1-yl)-N-(tetrahydrofuran-3-yl)benzamide]: the IC50 (usually the midpoint of a concentration-inhibition curve) was found to be 2.99 nM.
Turning to `CCC(O)CNC(=O)c1cccc(-n2ncc3cc(O[C@H](c4ccc(OC)nc4)[C@H](C)NC(=O)C(C)(F)F)ccc32)c1` (stereo partly drawn) [Example 26, 3-(5-{[(1R,2S)-2-[(2,2-difluoropropanoyl)amino]-1-(6-methoxypyridin-3-yl)propyl]oxy}-1H-indazol-1-yl)-N-(2-hydroxybutyl)benzamide], the IC50 was determined as 4.13 nM.
Then `COc1ccc([C@@H](Oc2ccc3c(cnn3-c3cccc(C(=O)NC4CCCC4)c3)c2)[C@H](CO)NC(=O)C(C)(F)F)cn1` [Example 27], with 13.6 nM; and `COc1ccc([C@@H](Oc2ccc3c(cnn3-c3cccc(C(=O)NCc4cccnc4)c3)c2)[C@H](C)NC(=O)C(C)(F)F)cn1` [Example 28, 3-(5-{[(1R,2S)-2-[(2,2-difluoropropanoyl)amino]-1-(6-methoxypyridin-3-yl)propyl]oxy}-1H-indazol-1-yl)-N-(pyridin-3-ylmethyl)benzamide], with 1.39 nM.
